pIC50: −log10 of the molar value. ≈ marks a conversion by molar mass, not a printed value. Where two headings read alike, the source gives them in different places.
What was measured:
[1] = tested on: KRAS G12D-dependent Ba/F3 cells; experiment: Ba/F3 proliferation assay, KRAS G12D; assay type: cell-based; settings: Mus musculus, BaF3, 72 h, AlamarBlue
Outline: (§1)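 Transforming KRAS G12 mutants replaced IL-3 dependence in retrovirally engineered Ba/F3 cells, with puromycin omitted about ten days before testing. Growth under compound was quantified with an AlamarBlue fluorescent viability stain, in duplicate, by curve fitting.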

[2] = molecular target: KRAS (G12D)::SOS1 (Homo sapiens (Human), UniProt P01116, G12D); experiment: KRAS::SOS1 AlphaScreen binding assay, KRAS G12D
KRAS (G12D)::SOS1, sequence (P01116 other isoform, or with tags, fused parts or gaps G12D): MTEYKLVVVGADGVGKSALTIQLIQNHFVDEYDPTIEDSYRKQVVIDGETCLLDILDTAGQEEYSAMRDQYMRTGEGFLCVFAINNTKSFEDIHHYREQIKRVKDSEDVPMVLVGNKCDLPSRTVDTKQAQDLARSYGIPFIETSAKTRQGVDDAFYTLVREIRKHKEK
Outline: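 Compounds (up to 100 μM, eleven fivefold dilutions in duplicate) were incubated 30 min with KRAS 1-169 (10 nM, or 7.5 nM for G12C), GST-SOS1 564-1049 (5 nM for G12D/G12C, 10 nM for others) and 10 μM GDP in PBS buffer with BSA and Tween. Donor/acceptor beads were then added for 60 min at room temperature, and IC50 came from a 4-parameter fit of the AlphaScreen signal.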

[3] = tested on: KRAS G12V-dependent Ba/F3 cells; experiment: Ba/F3 proliferation assay, KRAS G12V; assay type: cell-based; settings: Mus musculus, BaF3, 72 h, AlamarBlue;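 further: proliferation IC50 in KRAS G12V-dependent Ba/F3 cells read by AlamarBlue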
Outline: as §1

[4] = Solubility measurement (DMSO solution method), McIlvaine buffer pH 4.5 or 6.8; assay type: physicochemical; settings: aqueous buffer, kinetic from dmso stock, DMSO stock diluted to 250 μM, 24 h shaking at ambient temperature
Outline: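 DMSO stock diluted into McIlvaine buffer, pH 4.5 or 6.8, to 250 µM final, shaken 24 h at ambient temperature. Precipitate removed by filtration; filtrate quantified by LC-UV against a fully dissolved reference in acetonitrile/water 1:1.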

[5] = McIlvaine buffer pH 4.5, read-out: solubility pH 4.5
[6] = McIlvaine buffer pH 6.8, read-out: solubility pH 6.8

SMILES | pIC50 [1] | pIC50 [2] | pIC50 [3] | solubility at 24 h [4, 5] | solubility at 24 h [4, 6]
CO[C@@H]1C[C@@H]([C@H](C)Oc2cc(N3CCN(C)C4(COC4)C3)nc(-c3noc4c3CCC[C@@]43CCCc4sc(N)c(C#N)c43)n2)N(C)C1 [II-153] | 6.90 | 8.70 | 5.62 | > 0.135 mg/mL | 0.103 mg/mL (≈ 156 µM)
C[C@H](Oc1cc(-n2cc3c(n2)CNC3)nc(-c2noc3c2CCC[C@@]32CCCc3sc(N)c(C#N)c32)n1)[C@@H]1C[C@@H](F)CN1C [II-154] | 7.09 | 9.00 | 6.87 | > 0.144 mg/mL | 0.017 mg/mL (≈ 27.6 µM)
C[C@H](Oc1nc(-c2noc3c2CCC[C@@]32CCCc3sc(N)c(C#N)c32)nc(N2CCNC3(CC3)C2)c1F)[C@@H]1C[C@@H](F)CN1C [II-155] | 8.22 | 9.00 | 6.73 | > 0.153 mg/mL | 0.003 mg/mL (≈ 4.71 µM)
C[C@H](Oc1nc(-c2noc3c2CCC[C@@]32CCCc3sc(N)c(C#N)c32)nc(N2CCNC3(CC3)C2)c1Cl)[C@@H]1C[C@@H](F)CN1C [II-156] | 7.80 | 9.00 | 6.57 | > 0.142 mg/mL | < 0.001 mg/mL
C[C@H](Oc1nc(-c2noc3c2CCC[C@@]32CCCc3sc(N)c(C#N)c32)nc(N2C[C@H](C)NC3(CC3)C2)c1F)[C@@H]1C[C@@H](F)CN1C [II-157] | 7.77 | 9.00 | 6.59 | > 0.147 mg/mL | < 0.001 mg/mL
C[C@@H]1CN(c2nc(-c3noc4c3CCC[C@@]43CCCc4sc(N)c(C#N)c43)nc(O[C@@H](C)[C@@H]3C[C@@H](F)CN3C)c2F)CC2(CC2)N1 [II-158] | 7.62 | 8.70 | 6.97 | > 0.15 mg/mL | < 0.001 mg/mL
COc1c(O[C@@H](C)[C@@H]2CCCN2C)nc(-c2noc3c2CCC[C@@]32CCCc3sc(N)c(C#N)c32)nc1-n1ccc(C(N)=O)n1 [II-159] | 6.44 | 8.22 | 7.03 | 0.125 mg/mL (≈ 198 µM) | 0.125 mg/mL (≈ 198 µM)
C[C@H](Oc1cc(N2CCN[C@@H](C)C2)nc(-c2noc3c2CCC[C@@]32CCCc3sc(N)c(C#N)c32)n1)[C@@H]1CCCN1C [II-162] | 7.39 | 9.00 | 6.24 | > 0.14 mg/mL | > 0.137 mg/mL
C[C@H](Oc1cc([C@H]2CCNC2)nc(-c2noc3c2CCC[C@@]32CCCc3sc(N)c(C#N)c32)n1)[C@@H]1CCCN1C [II-163] | 7.01 | 9.00 | 6.49 | > 0.137 mg/mL | > 0.133 mg/mL
C[C@H](Oc1cc(C2=CCNCC2)nc(-c2noc3c2CCC[C@@]32CCCc3sc(N)c(C#N)c32)n1)[C@@H]1CCCN1C [II-164] | 7.18 | 9.00 | 6.88 | > 0.164 mg/mL | > 0.137 mg/mL
C[C@H](Oc1cc(N2CCNC3(CC3)C2)nc(-c2noc3c2CCC[C@@]32CCCc3sc(N)c(C#N)c32)n1)[C@@H]1C[C@@H](F)CN1C [II-165] | 8.52 | 9.00 | 6.92 | > 0.142 mg/mL | 0.049 mg/mL (≈ 79.2 µM)
CC(C)[C@@H]1CN(c2cc(O[C@@H](C)[C@@H]3CCCN3C)nc(-c3noc4c3CCC[C@@]43CCCc4sc(N)c(C#N)c43)n2)CCN1 [II-166] | 6.81 | 9.00 | 6.37 | > 0.152 mg/mL | > 0.147 mg/mL
C[C@H](Oc1cc(N2C[C@@H]3[C@@H](N)[C@@H]3C2)nc(-c2noc3c2CCC[C@@]32CCCc3sc(N)c(C#N)c32)n1)[C@@H]1CCCN1C [II-167] | 6.21 | 8.70 | 6.06 | > 0.153 mg/mL | > 0.142 mg/mL
C[C@H](Oc1cc(-n2cc3c(n2)CNC3)nc(-c2noc3c2CCC[C@@]32CCCc3sc(N)c(C#N)c32)n1)[C@@H]1CCCN1C [II-168] | 7.57 | 9.00 | 7.59 | > 0.139 mg/mL | > 0.128 mg/mL
CC(C)N1CCCN(c2cc(-n3ccnc3)nc(-c3noc4c3CCC[C@@]43CCCc4sc(N)c(C#N)c43)n2)[C@@H](C)C1 [II-169] | 6.55 | 8.05 | 7.21 | > 0.124 mg/mL | 0.013 mg/mL (≈ 22.3 µM)
CC(C)N1CCCN(c2cc(-c3ccn(C)n3)nc(-c3noc4c3CCC[C@@]43CCCc4sc(N)c(C#N)c43)n2)[C@@H](C)C1 [II-170] | 7.05 | 8.05 | 7.77 | 0.118 mg/mL (≈ 197 µM) | 0.024 mg/mL (≈ 40.1 µM)
C[C@H](Oc1cc(N2CCN(C)C3(CC3)C2)nc(-c2noc3c2CCC[C@@]32CCCc3sc(N)c(C#N)c32)n1)[C@@H]1CCCN1C [II-171] | 8.00 | 9.00 | 6.37 | > 0.15 mg/mL | > 0.148 mg/mL
C[C@H](Oc1cc(N2C[C@H](C)N(C)[C@@H](C)C2)nc(-c2noc3c2CCC[C@@]32CCCc3sc(N)c(C#N)c32)n1)[C@@H]1CCCN1C [II-173] | 7.29 | 9.00 | 6.17 | > 0.144 mg/mL | > 0.146 mg/mL
C[C@H](Oc1cc(-n2cc3c(n2)CN(C)C3)nc(-c2noc3c2CCC[C@@]32CCCc3sc(N)c(C#N)c32)n1)[C@@H]1CCCN1C [II-174] | 7.80 | 9.00 | 7.15 | > 0.149 mg/mL | 0.115 mg/mL (≈ 188 µM)
C[C@H](Oc1nc(-c2noc3c2CCC[C@@]32CCCc3sc(N)c(C#N)c32)nc(N2CCN(C)C3(CC3)C2)c1Cl)[C@@H]1C[C@@H](F)CN1C [II-176] | 6.95 | 8.70 | 5.92 | > 0.14 mg/mL | < 0.001 mg/mL
CC(=O)N1CCN(c2cc(O[C@@H](C)[C@@H]3CCCN3C)nc(-c3noc4c3CCC[C@@]43CCCc4sc(N)c(C#N)c43)n2)CC12CC2 [II-178] | 7.07 | 8.70 | 7.49 | 0.127 mg/mL (≈ 198 µM) | 0.11 mg/mL (≈ 171 µM)
CC(C)NC(=O)Cc1ccn(-c2cc(O[C@@H](C)[C@@H]3CCCN3C)nc(-c3noc4c3CCC[C@@]43CCCc4sc(N)c(C#N)c43)n2)n1 [II-182] | 7.80 | 9.00 | 8.52 | > 0.148 mg/mL | 0.086 mg/mL (≈ 131 µM)
CO[C@H]1CCN(C)[C@@H]1[C@H](C)Oc1cc(-n2ccc(CC(=O)NC(C)C)n2)nc(-c2noc3c2CCC[C@@]32CCCc3sc(N)c(C#N)c32)n1 [II-183] | 7.92 | 9.00 | 8.52 | 0.113 mg/mL (≈ 165 µM) | 0.004 mg/mL (≈ 5.83 µM)
CO[C@H]1CCN(C)[C@@H]1[C@H](C)Oc1cc(N2CCNC3(CC3)C2)nc(-c2noc3c2CCC[C@@]32CCCc3sc(N)c(C#N)c32)n1 [II-184] | 9.00 | 9.00 | 6.81 | > 0.158 mg/mL | > 0.147 mg/mL
CCN1CCN(c2cc(O[C@@H](C)[C@@H]3C[C@@H](F)CN3C)nc(-c3noc4c3CCC[C@@]43CCCc4sc(N)c(C#N)c43)n2)CC12CC2 [II-185] | 7.33 | 9.00 | 6.48 | > 0.147 mg/mL | 0.008 mg/mL (≈ 12.4 µM)

— patent US20240174690A1, “ANNULATED 2-AMINO-3-CYANO THIOPHENES AND DERIVATIVES FOR THE TREATMENT OF CANCER” (BOEHRINGER INGELHEIM INTERNATIONAL GMBH, priority 2021, published 2024)
